Results taken from PubChem BioAssay (NCI).
“And” between values parts separate entries of the source, which are not always exact repeats. Identical values can stand only once.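 Where inhibition never reached the appropriate level, the endpoint shown equals the highest concentration tested. Otherwise, values were interpolated linearly from a five-concentration, 48-hour dose response in 96-well plates. GI50 marks 50% less growth. The concentration for full growth arrest is given as TGI.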

How the values were obtained:
Assay in all cases: growth of human tumour cells (NCI), 48 h
[1] = tested on: MOLT-4 leukemia
[2] = tested on: SN12C renal
[3] = tested on: OVCAR-8 ovarian
[4] = tested on: KM20L2 colon
[5] = tested on: M14 melanoma
[6] = tested on: NCI-H23 lung
[7] = tested on: NCI-H460 lung
[8] = tested on: UO-31 renal
[9] = tested on: A498 renal
[10] = tested on: SW-620 colon
[11] = tested on: HT29 colon
[12] = tested on: UACC-257 melanoma
[13] = tested on: MALME-3M melanoma
[14] = tested on: UACC-62 melanoma
[15] = tested on: M19-MEL melanoma
[16] = tested on: OVCAR-3 ovarian
[17] = tested on: CAKI-1 renal
[18] = tested on: LOX IMVI melanoma
[19] = tested on: CCRF-CEM leukemia
[20] = tested on: LXFL 529 NSCLC
[21] = tested on: U251 CNS
[22] = tested on: K-562 leukemia
[23] = tested on: SK-MEL-28 melanoma
[24] = tested on: RPMI-8226 leukemia
[25] = tested on: HCT-116 colon
[26] = tested on: SK-MEL-2 melanoma
[27] = tested on: TK-10 renal
[28] = tested on: NCI-H226 lung
[29] = tested on: DMS 273 small cell lung
[30] = tested on: SNB-75 CNS
[31] = tested on: DMS 114 small cell lung
[32] = tested on: COLO 205 colon
[33] = tested on: HOP-18 NSCLC
[34] = tested on: SF-268 CNS
[35] = tested on: RXF 393 renal
[36] = tested on: 786-0 renal
[37] = tested on: HCT-15 colon
[38] = tested on: IGROV1 ovarian
[39] = tested on: HCC-2998 colon
[40] = tested on: HOP-92 NSCLC
[41] = tested on: ACHN renal
[42] = tested on: SNB-78 CNS
[43] = tested on: A549 NSCLC
[44] = tested on: DLD-1 colon
[45] = tested on: NCI-H522 lung
[46] = tested on: SK-OV-3 ovarian
[47] = tested on: OVCAR-4 ovarian
[48] = tested on: OVCAR-5 ovarian
[49] = tested on: HOP-62 NSCLC
[50] = tested on: HL-60(TB) leukemia
[51] = tested on: XF 498 CNS
[52] = tested on: SK-MEL-5 melanoma
[53] = tested on: SF-539 CNS
[54] = tested on: SF-295 CNS
[55] = tested on: EKVX NSCLC
[56] = tested on: SR leukemia
[57] = tested on: SNB-19 CNS
[58] = tested on: KM12 colon

COC(=O)C1=C(C)N(NC(=O)Nc2ccccc2)C2(N)N(NC(=O)Nc3ccccc3)C(C)=C(C(=O)OC)C12C(=O)OC (configuration not stated)
TGI [1]: 71.3 µM | TGI [2]: > 100 µM | TGI [3]: > 100 µM | TGI [4]: > 100 µM | TGI [5]: > 100 µM | TGI [6]: > 100 µM | TGI [7]: > 100 µM | TGI [8]: > 100 µM | TGI [9]: > 100 µM | TGI [10]: > 100 µM | TGI [11]: > 100 µM | TGI [12]: > 100 µM | TGI [13]: > 100 µM | TGI [14]: > 100 µM | TGI [15]: 78.7 µM | TGI [16]: > 100 µM | TGI [17]: 82.9 µM | TGI [18]: > 100 µM | TGI [19]: > 100 µM | TGI [20]: > 100 µM | TGI [21]: > 100 µM | TGI [22]: > 100 µM | TGI [23]: > 100 µM | TGI [24]: 78.5 µM | TGI [25]: > 100 µM | TGI [26]: > 100 µM | TGI [27]: > 100 µM | TGI [28]: > 100 µM | TGI [29]: > 100 µM | TGI [30]: > 100 µM | TGI [31]: > 100 µM | TGI [32]: > 100 µM | TGI [33]: > 100 µM | TGI [34]: > 100 µM | TGI [35]: > 100 µM | TGI [36]: > 100 µM | TGI [37]: > 100 µM | TGI [38]: 55.5 µM | TGI [39]: > 100 µM | TGI [40]: > 100 µM | TGI [41]: > 100 µM | TGI [42]: 84.6 µM | TGI [43]: > 100 µM | TGI [44]: > 100 µM | TGI [45]: > 100 µM | TGI [46]: > 100 µM | TGI [47]: > 100 µM | TGI [48]: > 100 µM

NS(=O)(=O)C1CCCCC1C(=O)NNC(=O)C(=O)Nc1nc(=S)[nH][nH]1 (configuration not stated)
TGI [1]: > 100 µM | TGI [49]: > 100 µM | TGI [2]: > 100 µM | TGI [3]: > 100 µM | TGI [4]: > 100 µM | TGI [50]: > 100 µM | TGI [5]: > 100 µM | TGI [6]: > 100 µM | TGI [7]: > 100 µM | TGI [8]: > 100 µM | TGI [51]: > 100 µM | TGI [52]: > 100 µM | TGI [53]: > 100 µM | TGI [9]: > 100 µM | TGI [10]: > 100 µM | TGI [11]: > 100 µM | TGI [12]: > 100 µM | TGI [54]: > 100 µM | TGI [14]: > 100 µM | TGI [15]: > 100 µM | TGI [17]: > 100 µM | TGI [18]: > 100 µM | TGI [19]: > 100 µM | TGI [20]: > 100 µM | TGI [21]: > 100 µM | TGI [22]: > 100 µM | TGI [23]: > 100 µM | TGI [24]: > 100 µM | TGI [25]: > 100 µM | TGI [26]: > 100 µM | TGI [27]: > 100 µM | TGI [28]: > 100 µM | TGI [29]: > 100 µM | TGI [55]: > 100 µM | TGI [30]: > 100 µM | TGI [31]: > 100 µM | TGI [32]: > 100 µM | TGI [34]: > 100 µM | TGI [56]: > 100 µM | TGI [57]: > 100 µM | TGI [35]: > 100 µM | TGI [37]: > 100 µM | TGI [58]: > 100 µM | TGI [38]: > 100 µM | TGI [39]: > 100 µM | TGI [40]: > 100 µM | TGI [41]: > 100 µM | TGI [42]: > 100 µM | TGI [43]: > 100 µM | TGI [44]: > 100 µM | TGI [45]: > 100 µM | TGI [46]: > 100 µM | TGI [47]: > 100 µM | TGI [48]: > 100 µM

Nc1ccc2ncc(Nc3ccc(Cl)c(Cl)c3)nc2c1
TGI [1]: 65.1 µM | TGI [49]: 84.3 µM | TGI [2]: > 100 µM | TGI [3]: 83.3 µM | TGI [4]: > 100 µM | TGI [50]: 38.3 µM | TGI [5]: 94.1 µM | TGI [6]: 47.9 µM | TGI [7]: > 100 µM | TGI [8]: > 100 µM | TGI [51]: 60.8 µM | TGI [52]: 36.1 µM | TGI [53]: 40.4 µM | TGI [10]: > 100 µM | TGI [11]: 34.9 µM | TGI [12]: 54.6 µM | TGI [54]: 49.9 µM | TGI [13]: 55.8 µM | TGI [14]: 50.9 µM | TGI [15]: 47.4 µM | TGI [16]: 40.1 µM | TGI [17]: 67.3 µM | TGI [18]: > 100 µM | TGI [19]: 65.6 µM | TGI [20]: > 100 µM | TGI [21]: 80.1 µM | TGI [22]: > 100 µM | TGI [23]: 84.1 µM | TGI [24]: > 100 µM | TGI [25]: 57.3 µM | TGI [26]: > 100 µM | TGI [27]: > 100 µM | TGI [28]: 62.6 µM | TGI [29]: 49.5 µM | TGI [55]: 88.9 µM | TGI [30]: 59.4 µM | TGI [31]: 42.1 µM | TGI [32]: 32.9 µM | TGI [34]: > 100 µM | TGI [56]: > 100 µM | TGI [57]: 81.4 µM | TGI [35]: 55.2 µM | TGI [36]: > 100 µM | TGI [37]: > 100 µM | TGI [58]: > 100 µM | TGI [39]: 32.8 µM | TGI [40]: 52.3 µM | TGI [41]: 86.3 µM | TGI [42]: 74.1 µM | TGI [43]: > 100 µM | TGI [44]: > 100 µM | TGI [45]: 48.8 µM | TGI [46]: > 100 µM | TGI [47]: > 100 µM | TGI [48]: > 100 µM

Cc1c2cc[n+](C)cc2c(C)c2c1[nH]c1ccc(Oc3ccccc3)cc12
TGI [1]: > 43.7 µM and 12.7 µM | TGI [49]: 38 µM and 26.3 µM | TGI [2]: > 100 µM | TGI [3]: > 100 µM | TGI [4]: 23 µM and > 52.3 µM | GI50 [50]: 2.18 µM and 4.06 µM | TGI [5]: > 61.5 µM and 40.1 µM | GI50 [6]: 1.73 µM | GI50 [7]: 1.64 µM and 1.06 µM | TGI [7]: 14 µM and 11.4 µM | TGI [8]: 40 µM and > 38.1 µM | TGI [53]: 20.2 µM and 21 µM | TGI [9]: > 100 µM | TGI [10]: > 37.9 µM and 40.6 µM | TGI [11]: 21.2 µM and 29 µM | TGI [12]: 6.96 µM and 8.42 µM | TGI [14]: 7.5 µM and 7.54 µM | GI50 [15]: 2.56 µM and 3.23 µM | TGI [15]: 24.5 µM and > 100 µM | TGI [16]: > 37.6 µM and 31.7 µM | TGI [17]: > 100 µM | GI50 [18]: 2.96 µM | TGI [18]: 11.3 µM and 50.1 µM | TGI [19]: 18.6 µM and 22.9 µM | TGI [20]: 6.13 µM and 6.82 µM | TGI [21]: > 100 µM | TGI [22]: > 24 µM | TGI [23]: > 27.3 µM and 21.3 µM | TGI [24]: 23.8 µM and 16.1 µM | TGI [25]: > 100 µM | GI50 [27]: 1.55 µM and 3.43 µM | TGI [27]: > 71.2 µM and 30.2 µM | GI50 [28]: 0.797 µM | TGI [28]: 28 µM and 8.75 µM | GI50 [29]: 1.15 µM | TGI [29]: > 100 µM | TGI [55]: > 100 µM and 51.7 µM | GI50 [30]: 0.549 µM | TGI [30]: 4.36 µM and 5.27 µM | TGI [32]: 5.25 µM | GI50 [33]: 2.37 µM and 5.56 µM | TGI [33]: 21.8 µM and 32.5 µM | TGI [34]: 14.7 µM and > 19.9 µM | GI50 [56]: 4.39 µM and 1.87 µM | TGI [56]: > 71.9 µM and 8.31 µM | GI50 [57]: 0.23 µM | TGI [57]: 0.887 µM and 4.09 µM | GI50 [35]: > 100 µM and 11 µM | TGI [35]: > 100 µM and 59.4 µM | TGI [36]: > 64.3 µM | TGI [37]: > 100 µM | TGI [58]: 18.8 µM and > 100 µM | TGI [38]: 33.5 µM and 24.5 µM | TGI [39]: > 47.9 µM and 39.6 µM | TGI [40]: 7.37 µM and 6.77 µM | TGI [41]: > 38.4 µM and 19 µM | GI50 [42]: 0.809 µM and 0.266 µM | TGI [42]: 3.47 µM | TGI [43]: > 100 µM | TGI [44]: > 100 µM | GI50 [45]: 2.41 µM and 0.743 µM | TGI [45]: 12.1 µM and 8.56 µM | TGI [46]: > 73.5 µM and 21.4 µM | TGI [47]: 36.5 µM and > 68.7 µM | TGI [48]: > 42 µM and 29.9 µM
